Measured values from ChEMBL document CHEMBL4371076 (J Med Chem, 2019).
pIC50: −log10 of the molar value. Activity calls are given as the source filed them. The rule behind the calls is not given here.

Assays:
Cytochrome P450 2C19 [1] = biological target: T1, Cytochrome P450 2C19 (Homo sapiens, UniProt P33261); assay: Time-dependant inhibition of CYP2C19 in human liver microsomes; type: ADME
Cytochrome P450 2C9 [2] = biological target: T2, Cytochrome P450 2C9 (Homo sapiens, UniProt P11712); assay: Inhibition of CYP2C9 in human liver microsomes; type: ADME; details: human, microsomes
[3] = Efflux ratio of permeability in human Caco2 cells; type: ADME, cell-based; details: Caco-2
Mus musculus [4] = assay: Analgesic activity in CD1 mouse model of formalin-induced nociception assessed as reduction in formalin-evoked paw flinching/licking response during second phase at 30 mg/kg, po pretreated for 30 mins followed by formalin treatment and measured during 15 to 45 mins post formalin injection; type: functional, organism-based
Mus musculus [5] = assay: Analgesic activity in CD1 mouse model of formalin-induced nociception assessed as reduction in formalin-evoked paw flinching/licking response during first phase at 30 mg/kg, po pretreated for 30 mins followed by formalin treatment and measured during first 5 mins post formalin injection; type: functional, organism-based
[6] = Permeability from apical to basolateral side in human Caco2 cells; type: ADME, cell-based; details: Caco-2, read-out: permeability
Cytochrome P450 2D6 [7] = biological target: T3, Cytochrome P450 2D6 (Homo sapiens, UniProt P10635); assay: Inhibition of CYP2D6 in human liver microsomes; type: ADME; details: human, microsomes
[8] = Unbound plasma concentration in CD1 mouse model of formalin-induced nociception at 30 mg/kg, po; type: ADME, organism-based; details: in vivo
[9] = Plasma concentration in CD1 mouse model of formalin-induced nociception at 30 mg/kg, po; type: ADME, organism-based; details: read-out: Cp, in vivo
Cytochrome P450 2B6 [10] = biological target: T4, Cytochrome P450 2B6 (Homo sapiens, UniProt P20813); assay: Inhibition of CYP2B6 in human liver microsomes; type: ADME; details: human, microsomes
T4 sequence (P20813 whole entry): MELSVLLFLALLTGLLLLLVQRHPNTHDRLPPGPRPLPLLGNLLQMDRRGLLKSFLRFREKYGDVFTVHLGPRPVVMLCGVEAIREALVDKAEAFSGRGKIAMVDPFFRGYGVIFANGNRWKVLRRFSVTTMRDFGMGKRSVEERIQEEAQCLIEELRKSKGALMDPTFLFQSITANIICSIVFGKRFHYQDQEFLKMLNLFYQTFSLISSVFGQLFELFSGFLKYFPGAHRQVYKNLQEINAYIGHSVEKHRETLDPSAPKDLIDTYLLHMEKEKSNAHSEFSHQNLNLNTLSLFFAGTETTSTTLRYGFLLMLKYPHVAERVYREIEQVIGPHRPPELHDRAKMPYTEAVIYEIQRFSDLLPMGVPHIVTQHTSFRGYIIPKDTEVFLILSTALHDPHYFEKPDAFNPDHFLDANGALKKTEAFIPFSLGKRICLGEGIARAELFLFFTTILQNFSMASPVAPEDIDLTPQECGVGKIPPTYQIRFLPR

[11] = Permeability from basolateral to apical side in human Caco2 cells; type: ADME, cell-based; details: Caco-2, read-out: permeability
[12] = Metabolic stability in mouse liver microsomes assessed as parent compound remaining at 0.5 uM after 10 mins; type: ADME, Microsome; details: read-out: Stability
[13] = Fraction unbound in mouse plasma; type: ADME, cell-free
[14] = biological target: T5, Sodium channel protein type 9 subunit alpha (Homo sapiens, UniProt Q15858); assay: Inhibition of recombinant human Nav1.7 expressed in HEK293 cells at -70 mV holding potential by patch clamp electrophysiology method; type: cell-based
Cytochrome P450 2B6 [15] = biological target: T4, Cytochrome P450 2B6; assay: Time-dependant inhibition of CYP2B6 in human liver microsomes; type: ADME
[16] = biological target: T6, Sodium channel protein type 9 subunit alpha (Mus musculus, UniProt Q62205); assay: Inhibition of recombinant mouse Nav1.7 expressed in HEK293 cells at -70 mV holding potential by patch clamp electrophysiology method; type: cell-based
[17] = biological target: T6, Sodium channel protein type 9 subunit alpha; assay: Inhibition of Nav1.7 in mouse DRG neurons at -70 mV holding potential by patch clamp electrophysiology method
Cytochrome P450 2D6 [18] = biological target: T3, Cytochrome P450 2D6; assay: Time-dependant inhibition of CYP2D6 in human liver microsomes; type: ADME
[19] = Metabolic stability in rat liver microsomes assessed as parent compound remaining at 0.5 uM after 10 mins; type: ADME, Microsome; details: read-out: Stability
Cytochrome P450 2C8 [20] = biological target: T7, Cytochrome P450 2C8 (Homo sapiens, UniProt P10632); assay: Time-dependant inhibition of CYP2C8 in human liver microsomes; type: ADME
T7 sequence (P10632 whole entry): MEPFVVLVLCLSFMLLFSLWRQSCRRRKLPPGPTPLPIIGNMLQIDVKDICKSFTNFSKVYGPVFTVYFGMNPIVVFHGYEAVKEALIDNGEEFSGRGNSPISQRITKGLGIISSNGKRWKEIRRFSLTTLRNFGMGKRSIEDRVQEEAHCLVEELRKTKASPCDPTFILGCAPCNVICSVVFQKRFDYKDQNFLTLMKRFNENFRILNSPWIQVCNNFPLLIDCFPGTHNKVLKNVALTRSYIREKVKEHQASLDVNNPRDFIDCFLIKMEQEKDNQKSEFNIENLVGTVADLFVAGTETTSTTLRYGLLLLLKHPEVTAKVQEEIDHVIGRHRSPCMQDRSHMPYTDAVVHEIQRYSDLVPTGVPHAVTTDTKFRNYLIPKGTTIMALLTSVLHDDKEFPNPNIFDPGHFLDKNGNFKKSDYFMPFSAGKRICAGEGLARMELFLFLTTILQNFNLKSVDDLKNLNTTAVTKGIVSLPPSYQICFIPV

[21] = Toxicity in CD1 mouse model of formalin-induced nociception assessed as hypothermia at 30 mg/kg, po; type: organism-based; details: in vivo
[22] = Permeability of the compound at pH 5.5 by PAMPA; type: ADME; details: read-out: permeability
[23] = Toxicity in CD1 mouse model of formalin-induced nociception assessed as prostration or sedation at 30 mg/kg, po; type: organism-based; details: in vivo
[24] = Permeability of the compound at pH 7.4 by PAMPA; type: ADME; details: read-out: permeability
[25] = Metabolic stability in human liver microsomes assessed as parent compound remaining at 0.5 uM after 10 mins; type: ADME, Microsome; details: read-out: Stability
Cytochrome P450 3A4 [26] = biological target: T8, Cytochrome P450 3A4 (Homo sapiens, UniProt P08684); assay: Time-dependant inhibition of CYP3A4 in human liver microsomes; type: ADME
Cytochrome P450 3A4 [27] = biological target: T8, Cytochrome P450 3A4; assay: Inhibition of CYP3A4 in human liver microsomes; type: ADME; details: human, microsomes
Cytochrome P450 2C19 [28] = biological target: T1, Cytochrome P450 2C19; assay: Inhibition of CYP2C19 in human liver microsomes; type: ADME; details: human, microsomes
Cytochrome P450 2C8 [29] = biological target: T7, Cytochrome P450 2C8; assay: Inhibition of CYP2C8 in human liver microsomes; type: ADME; details: human, microsomes
Cytochrome P450 2C9 [30] = biological target: T2, Cytochrome P450 2C9; assay: Time-dependant inhibition of CYP2C9 in human liver microsomes; type: ADME
[31] = Fraction unbound in human plasma; type: ADME, cell-free
[32] = Unbound drug level in DRG neurons of CD1 mouse model of formalin-induced nociception at 30 mg/kg, po; type: ADME, organism-based, DRG neuron; details: in vivo
[33] = Drug uptake in DRG neurons of CD1 mouse model of formalin-induced nociception at 30 mg/kg, po; type: ADME, organism-based, DRG neuron; details: in vivo, read-out: Drug uptake
[34] = biological target: Sodium channel protein type 5 subunit alpha (Homo sapiens, UniProt Q14524); assay: Inhibition of human Nav1.5 expressed in HEK293 cells after 600 secs at -50 mV holding potential by ion works barracuda population patch clamp method; type: cell-based
[35] = biological target: T5, Sodium channel protein type 9 subunit alpha; assay: Inhibition of human Nav1.7 expressed in HEK293 cells after 600 secs at -60 mV holding potential by ion works barracuda population patch clamp method; type: cell-based

T3 sequence (P10635 whole entry): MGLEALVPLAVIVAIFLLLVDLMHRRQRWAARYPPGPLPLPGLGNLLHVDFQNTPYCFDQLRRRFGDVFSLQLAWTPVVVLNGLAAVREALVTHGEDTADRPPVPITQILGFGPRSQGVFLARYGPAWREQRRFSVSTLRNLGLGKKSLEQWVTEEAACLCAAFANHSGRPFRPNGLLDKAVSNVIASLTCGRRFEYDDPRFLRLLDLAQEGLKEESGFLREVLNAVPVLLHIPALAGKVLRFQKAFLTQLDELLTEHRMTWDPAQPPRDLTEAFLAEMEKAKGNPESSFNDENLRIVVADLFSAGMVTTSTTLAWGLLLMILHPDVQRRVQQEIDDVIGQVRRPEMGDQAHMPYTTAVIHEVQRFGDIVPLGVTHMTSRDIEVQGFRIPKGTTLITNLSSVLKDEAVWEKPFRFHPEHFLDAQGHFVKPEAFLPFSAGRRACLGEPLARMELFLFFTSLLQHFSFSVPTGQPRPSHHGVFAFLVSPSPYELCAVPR
T5 sequence (Q15858 whole entry): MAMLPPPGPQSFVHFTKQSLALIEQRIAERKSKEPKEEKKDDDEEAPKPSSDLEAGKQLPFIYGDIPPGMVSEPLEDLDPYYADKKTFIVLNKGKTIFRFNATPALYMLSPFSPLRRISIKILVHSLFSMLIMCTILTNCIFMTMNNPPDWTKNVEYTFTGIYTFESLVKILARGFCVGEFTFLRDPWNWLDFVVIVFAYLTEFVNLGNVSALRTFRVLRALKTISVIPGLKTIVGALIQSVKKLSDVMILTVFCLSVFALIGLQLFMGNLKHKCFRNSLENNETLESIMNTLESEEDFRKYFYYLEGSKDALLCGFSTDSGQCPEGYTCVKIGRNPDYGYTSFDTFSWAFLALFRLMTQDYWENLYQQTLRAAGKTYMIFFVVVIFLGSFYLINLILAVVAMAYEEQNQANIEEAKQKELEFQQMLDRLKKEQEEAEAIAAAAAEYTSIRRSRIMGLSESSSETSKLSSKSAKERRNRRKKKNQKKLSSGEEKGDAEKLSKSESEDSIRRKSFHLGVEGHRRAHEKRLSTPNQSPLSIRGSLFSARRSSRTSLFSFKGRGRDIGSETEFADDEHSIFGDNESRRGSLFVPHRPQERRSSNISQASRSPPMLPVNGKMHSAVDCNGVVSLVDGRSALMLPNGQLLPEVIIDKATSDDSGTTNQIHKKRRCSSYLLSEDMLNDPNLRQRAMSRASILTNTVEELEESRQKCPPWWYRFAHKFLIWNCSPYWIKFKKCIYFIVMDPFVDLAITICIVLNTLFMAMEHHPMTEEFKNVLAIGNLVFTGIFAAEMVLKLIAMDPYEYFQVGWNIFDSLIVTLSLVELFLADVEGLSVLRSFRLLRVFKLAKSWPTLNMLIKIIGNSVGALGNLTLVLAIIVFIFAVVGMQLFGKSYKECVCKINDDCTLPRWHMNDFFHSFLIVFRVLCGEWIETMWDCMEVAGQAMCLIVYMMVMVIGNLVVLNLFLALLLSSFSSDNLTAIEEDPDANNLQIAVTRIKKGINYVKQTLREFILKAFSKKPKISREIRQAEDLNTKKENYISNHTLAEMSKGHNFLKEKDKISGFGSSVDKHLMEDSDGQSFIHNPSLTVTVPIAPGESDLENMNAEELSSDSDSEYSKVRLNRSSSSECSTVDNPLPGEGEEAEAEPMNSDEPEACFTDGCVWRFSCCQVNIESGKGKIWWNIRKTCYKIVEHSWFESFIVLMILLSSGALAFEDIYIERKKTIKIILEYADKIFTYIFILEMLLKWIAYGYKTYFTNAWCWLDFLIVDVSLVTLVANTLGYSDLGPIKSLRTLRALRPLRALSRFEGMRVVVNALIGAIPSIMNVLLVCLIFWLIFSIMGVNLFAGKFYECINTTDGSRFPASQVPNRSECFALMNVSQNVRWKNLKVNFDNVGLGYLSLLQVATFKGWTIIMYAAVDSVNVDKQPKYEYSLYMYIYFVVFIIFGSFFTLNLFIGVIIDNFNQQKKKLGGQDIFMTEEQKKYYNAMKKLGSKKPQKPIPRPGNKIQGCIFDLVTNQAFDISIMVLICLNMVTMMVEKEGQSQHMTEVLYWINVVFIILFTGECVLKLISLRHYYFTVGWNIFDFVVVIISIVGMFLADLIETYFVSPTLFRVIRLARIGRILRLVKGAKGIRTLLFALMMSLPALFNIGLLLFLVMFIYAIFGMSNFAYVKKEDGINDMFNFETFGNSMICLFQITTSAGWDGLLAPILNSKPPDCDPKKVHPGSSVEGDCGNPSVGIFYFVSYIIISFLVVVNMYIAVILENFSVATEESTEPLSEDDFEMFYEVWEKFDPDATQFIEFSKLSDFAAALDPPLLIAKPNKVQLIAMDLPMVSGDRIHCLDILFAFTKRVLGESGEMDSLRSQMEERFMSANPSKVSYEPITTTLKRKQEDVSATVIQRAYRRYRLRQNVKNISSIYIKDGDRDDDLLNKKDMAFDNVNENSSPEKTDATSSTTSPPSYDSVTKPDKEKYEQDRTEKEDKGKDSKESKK
T6 sequence (Q62205 whole entry): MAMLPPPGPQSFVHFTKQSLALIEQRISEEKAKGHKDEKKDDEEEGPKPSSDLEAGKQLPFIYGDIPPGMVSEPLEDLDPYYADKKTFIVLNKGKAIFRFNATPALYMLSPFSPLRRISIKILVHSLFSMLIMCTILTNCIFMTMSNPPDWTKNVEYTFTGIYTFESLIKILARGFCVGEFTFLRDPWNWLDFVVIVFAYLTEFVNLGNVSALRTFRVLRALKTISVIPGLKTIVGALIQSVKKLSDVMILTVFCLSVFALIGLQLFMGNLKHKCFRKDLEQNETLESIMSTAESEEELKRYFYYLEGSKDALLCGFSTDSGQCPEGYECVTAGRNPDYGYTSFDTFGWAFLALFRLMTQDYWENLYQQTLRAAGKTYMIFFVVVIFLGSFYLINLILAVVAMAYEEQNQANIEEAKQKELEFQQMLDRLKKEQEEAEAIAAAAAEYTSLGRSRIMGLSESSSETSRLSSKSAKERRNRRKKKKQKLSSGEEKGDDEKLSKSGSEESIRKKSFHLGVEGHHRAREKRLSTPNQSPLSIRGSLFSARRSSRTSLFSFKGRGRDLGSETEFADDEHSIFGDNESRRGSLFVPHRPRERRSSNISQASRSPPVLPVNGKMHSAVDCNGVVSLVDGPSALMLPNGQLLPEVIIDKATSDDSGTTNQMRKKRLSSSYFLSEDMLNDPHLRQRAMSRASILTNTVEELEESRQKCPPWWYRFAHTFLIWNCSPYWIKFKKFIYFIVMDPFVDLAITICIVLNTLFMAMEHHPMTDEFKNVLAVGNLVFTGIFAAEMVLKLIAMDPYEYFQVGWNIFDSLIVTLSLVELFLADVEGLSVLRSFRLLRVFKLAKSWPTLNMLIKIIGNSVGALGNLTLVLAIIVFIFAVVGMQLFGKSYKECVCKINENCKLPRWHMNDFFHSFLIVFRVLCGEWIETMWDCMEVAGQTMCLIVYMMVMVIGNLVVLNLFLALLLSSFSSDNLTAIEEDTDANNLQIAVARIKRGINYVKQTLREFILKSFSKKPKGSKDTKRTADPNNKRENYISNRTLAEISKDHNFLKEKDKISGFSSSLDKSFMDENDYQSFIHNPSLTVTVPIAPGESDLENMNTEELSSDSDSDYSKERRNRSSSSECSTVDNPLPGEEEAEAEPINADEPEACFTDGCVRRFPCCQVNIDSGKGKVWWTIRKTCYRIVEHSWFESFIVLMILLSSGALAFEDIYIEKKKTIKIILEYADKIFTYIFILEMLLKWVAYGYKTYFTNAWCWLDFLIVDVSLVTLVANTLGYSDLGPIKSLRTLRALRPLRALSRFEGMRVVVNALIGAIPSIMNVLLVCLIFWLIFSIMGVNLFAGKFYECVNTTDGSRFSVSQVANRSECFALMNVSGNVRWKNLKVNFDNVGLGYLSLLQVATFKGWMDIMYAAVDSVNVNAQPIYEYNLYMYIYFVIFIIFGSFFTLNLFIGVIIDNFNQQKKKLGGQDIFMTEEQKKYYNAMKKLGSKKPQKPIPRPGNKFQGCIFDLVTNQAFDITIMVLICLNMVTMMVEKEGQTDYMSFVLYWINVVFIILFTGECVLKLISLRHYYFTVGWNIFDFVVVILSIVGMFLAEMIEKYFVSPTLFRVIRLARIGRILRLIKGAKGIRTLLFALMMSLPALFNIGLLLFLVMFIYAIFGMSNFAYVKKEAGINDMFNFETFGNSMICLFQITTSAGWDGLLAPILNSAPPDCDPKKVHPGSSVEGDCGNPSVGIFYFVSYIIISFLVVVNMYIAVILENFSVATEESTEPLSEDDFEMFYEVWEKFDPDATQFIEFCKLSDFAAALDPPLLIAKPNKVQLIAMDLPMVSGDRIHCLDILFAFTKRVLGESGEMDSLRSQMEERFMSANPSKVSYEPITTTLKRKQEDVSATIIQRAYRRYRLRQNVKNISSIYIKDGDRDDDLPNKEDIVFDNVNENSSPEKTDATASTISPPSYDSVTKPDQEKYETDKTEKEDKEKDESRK
T1 sequence (P33261 whole entry): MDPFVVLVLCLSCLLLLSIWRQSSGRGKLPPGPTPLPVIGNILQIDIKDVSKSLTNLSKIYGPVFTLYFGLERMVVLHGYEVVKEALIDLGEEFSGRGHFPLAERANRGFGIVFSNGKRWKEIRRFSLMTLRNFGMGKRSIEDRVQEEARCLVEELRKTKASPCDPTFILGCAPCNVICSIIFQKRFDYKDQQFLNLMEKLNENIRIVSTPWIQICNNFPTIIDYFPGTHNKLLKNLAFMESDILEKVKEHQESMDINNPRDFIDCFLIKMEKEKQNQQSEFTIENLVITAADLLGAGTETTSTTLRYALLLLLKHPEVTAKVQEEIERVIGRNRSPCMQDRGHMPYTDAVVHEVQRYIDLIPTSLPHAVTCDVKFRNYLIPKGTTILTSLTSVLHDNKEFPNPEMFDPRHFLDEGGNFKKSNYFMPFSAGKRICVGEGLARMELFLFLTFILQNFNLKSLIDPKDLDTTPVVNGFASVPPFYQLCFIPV

| TDI (Cytochrome P450 2C19 [1]) | inhibition (INH) (Cytochrome P450 2C9 [2]) | efflux ratio [3] | Papp A→B [6] | inhibition (INH) (Cytochrome P450 2D6 [7]) | Cp(f) [8] | concentration [9] | inhibition (INH) (Cytochrome P450 2B6 [10]) | Papp B→A [11] | remaining at 10 min, 0.5 µM [12] | fraction unbound [13] | pIC50 [14] | TDI (Cytochrome P450 2B6 [15]) | pIC50 [16] | TDI (Cytochrome P450 2D6 [18]) | remaining at 10 min, 0.5 µM [19] | TDI (Cytochrome P450 2C8 [20]) | SMILES | Activity (Mus musculus [4]) | Activity (Mus musculus [5]) | Activity [21] | further results |
| --- | --- | --- | --- | --- | --- | --- | --- | --- | --- | --- | --- | --- | --- | --- | --- | --- | --- | --- | --- | --- | --- |
| Not Active | Not Active | 1.6 | 12 ×10⁻⁶ cm/s | Not Active | 792 nM | 132000 nM | Not Active | 18.9 ×10⁻⁶ cm/s | 98% | 0.006 | 7.72 | Not Active | 7.43 | Not Active | 78% | Not Active | CC(C)COc1ccc(-c2cn(C)c3cc(C(=O)NS(=O)(=O)C4CC4)c(F)cc23)cn1 | inactive | inactive | Non-Toxic | pIC50 [17]: 7.62; Papp [22]: 85.1 ×10⁻⁶ cm/s; Activity [23]: Non-Toxic; Papp [24]: 25.4 ×10⁻⁶ cm/s; remaining at 10 min, 0.5 µM [25]: 100%; TDI (Cytochrome P450 3A4 [26]): Not Active; inhibition (INH) (Cytochrome P450 3A4 [27]): Not Active; inhibition (INH) (Cytochrome P450 2C19 [28]): Not Active; inhibition (INH) (Cytochrome P450 2C8 [29]): Not Active; TDI (Cytochrome P450 2C9 [30]): Not Active; fraction unbound [31]: 0.024 |
| – | – | – | – | – | 340 nM | 1400 nM | – | – | – | – | – | – | – | – | – | – | O=S(=O)(Nc1nccs1)c1cc(Cl)c(NCC23CCCN2CCC3)cc1F | – | inactive | – | Drug uptake(free) [32]: 340 nM; concentration [33]: 340 nM |
| Not Active | Not Active | 3 | 3.4 ×10⁻⁶ cm/s | Not Active | 116 nM | 58000 nM | Not Active | 10.2 ×10⁻⁶ cm/s | 100% | 0.002 | 8.48 | Not Active | 8.00 | Not Active | 37% | Not Active | CC(C)COc1ncc(-c2cn(C)c3cc(C(=O)NS(=O)(=O)C4CC4)c(F)cc23)cc1Cl | inactive | inactive | Non-Toxic | pIC50 [34]: 5.29; Papp [22]: 33.5 ×10⁻⁶ cm/s; Activity [23]: Non-Toxic; Papp [24]: 31 ×10⁻⁶ cm/s; remaining at 10 min, 0.5 µM [25]: 100%; TDI (Cytochrome P450 3A4 [26]): Not Active; inhibition (INH) (Cytochrome P450 3A4 [27]): Not Active; concentration [33]: 11000 nM; inhibition (INH) (Cytochrome P450 2C19 [28]): Not Active; inhibition (INH) (Cytochrome P450 2C8 [29]): Not Active; TDI (Cytochrome P450 2C9 [30]): Not Active; fraction unbound [31]: < 0.001; pIC50 [35]: 6.64 |
